Experimental data published in US10927104B2, “Ether compounds and uses thereof” (BioTheryX, Inc., priority 2017, dated 2021).

Assays:
Format in all cases: cell-based
IL-1β = assay: PBMC assay, LPS-induced IL-1β (Meso Scale); conditions: Homo sapiens, PBMCs, 100 ng/mL LPS 18-24 hrs; for inhibition at 0.1 µM: compound at 0.1 μM; for inhibition at 1 µM: compound at 1 μM
Experimental: (§1) FIG. 1 represents the activity against IL-1-beta in peripheral blood mononuclear cells (PBMCs), plated in 96 well plates and pretreated with compound for 1 hour and then induced with 100 ng/mL LPS for 18-24 hrs. Cytokines in the media were measured according to MesoScale protocol. Negative control wells were treated with DMSO. Compound activity is measured as a percentage of LPS-induced activity.
(§2) Frozen primary blood mononuclear cells (PBMCs) were purchased from AllCells. Cells were quick thawed, washed once with RPMI-1640/10% FBS.
(§3) 1% Penicillin/1% Streptomycin and plated in 96 well plates at 200,000 cells per well. Cells were pretreated with DMSO only, or Compound 1 for 1 hour and then induced with 100 ng/mL lipopolysaccharide (LPS) for 18-24 hrs. The supernatant was analyzed for IL-1 beta, IL-6, and TNFα, using Meso Scale assay according to manufacturer's protocol. The negative control wells were treated with DMSO.
(§4) Compound activity was measured as fold difference from the DMSO control. IL-1β activity is shown in FIG. 1; IL-6 activity is shown in FIG. 2; TNFα activity is shown in FIG. 3; and IL-2 activity is shown in FIG. 4. Additional data for compounds (shown as percent inhibition) at 10 μM is shown in Table 1; at 1 μM in Table 2; and at 0.1 μM in Table 3.

MV-4-11 cells = assay: Cell viability assay (CellTiter-Glo), MV-4-11 proliferation; conditions: Homo sapiens, MV4-11, 72 h, 3 days; for inhibition at 1 µM: compound at 1 μM; for inhibition at 10 µM: compound at 10 μM
Experimental: (§5) Molm-13 and MV-4-11 cells were cultivated in RPMI-1640 (10% FBS/1% pen-strep) and were plated in white walled 96-well plates at 20,000 cells/well.
(§6) Cells were treated with compound at the indicated concentration or DMSO (control) and the cultures were incubated for 3 days at 37° C. and 5% CO2. Following the incubation period, 100 μL of CellTiterGlow (CTG) reagent (CellTiter-Glo® Luminescent Cell Viability Assay, Promega (Madison, Wis.)) was added to each well. Following a 10 min incubation with shaking, luminescence was measured using a Victor Wallac Luminometer.

TNFα = assay: PBMC assay, LPS-induced TNFα (Meso Scale); conditions: Homo sapiens, PBMCs, 100 ng/mL LPS 18-24 hrs; for inhibition at 0.1 µM: compound at 0.1 μM; for inhibition at 1 µM: compound at 1 μM
Experimental: as §1, with “FIG. 3” for “FIG. 1”, “against TNFα” for “against IL-1-beta”, “protocol. The negative” for “protocol. Negative”
as §2, §3, §4

IL-2 = assay: Anti-CD3-induced IL-2 secretion in PBMCs (Mesoscale); conditions: Homo sapiens, PBMC, anti-CD3 stimulated PBMCs, 24 hr, vs DMSO control, read-out: IL-2 Fold Change; for fold induction at 0.1 µM: compound at 0.1 μM; for fold induction at 1 µM: compound at 1 μM; for fold induction at 10 µM: compound 10 μM
Experimental: FIG. 4 represents Anti-CD3-induced IL-2 secretion in PBMCs. 1 μg/mL anti-CD3 (OKT-3) antibody in PBS coated onto 96-well plates overnight at 4° C. Approximately, 550,000 PBMCs were added to each well, followed by addition of DMSO only (control) or Compound 1. Induction was measured after 24 hrs as fold difference from the DMSO stimulated control.
as §2
For the IL-2 analysis, 96 well plates were precoated with 1 μg/mL anti-human CD3 antibody (OKT3, eBioscience Inc.). After washing with PBS, Compound 1 was added (50 μL/well) followed by PBMCs diluted at 3-4 million cells/mL (150 μL/well). Plates were incubated for 24 hr and the supernatants collected for Mesoscale IL-2 analysis.
as §4

IL-6 = assay: PBMC assay, LPS-induced IL-6 (Meso Scale); conditions: Homo sapiens, PBMCs, 100 ng/mL LPS 18-24 hrs; for inhibition at 0.1 µM: compound at 0.1 μM; for inhibition at 1 µM: compound at 1 μM
Experimental: as §1, with “FIG. 2” for “FIG. 1”, “against IL-6” for “against IL-1-beta”, “Cytokines” for “Cytokines in the media”, “activity was” for “activity is”
as §2, §3, §4

Molm-13 cells = assay: Cell viability assay (CellTiter-Glo), Molm-13 proliferation; conditions: Homo sapiens, MOLM-13, 72 h, 3 days; for inhibition at 10 µM: compound at 10 μM; for inhibition at 1 µM: compound at 1 μM; for inhibition at 0.1 µM: compound at 0.1 μM
Experimental: as §5, §6

| SMILES | inhibition at 0.1 µM (IL-1β) [%] | inhibition at 1 µM (IL-1β) [%] | inhibition at 1 µM (MV-4-11 cells) [%] | inhibition at 10 µM (MV-4-11 cells) [%] | inhibition at 0.1 µM (TNFα) [%] | inhibition at 1 µM (TNFα) [%] | fold induction at 0.1 µM (IL-2) | fold induction at 1 µM (IL-2) | inhibition at 0.1 µM (IL-6) [%] | inhibition at 1 µM (IL-6) [%] | inhibition at 10 µM (Molm-13 cells) [%] | fold induction at 10 µM (IL-2) | inhibition at 1 µM (Molm-13 cells) [%] | inhibition at 10 µM (IL-1β; compound at 10 μM) [%] | inhibition at 10 µM (TNFα; compound at 10 μM) [%] | inhibition at 10 µM (IL-6; compound at 10 μM) [%] | inhibition at 0.1 µM (Molm-13 cells) [%] |
| --- | --- | --- | --- | --- | --- | --- | --- | --- | --- | --- | --- | --- | --- | --- | --- | --- | --- |
| Cc1cnc(Nc2ccc(OCCCNCC(=O)NCc3ccc(COc4cccc5c4CN([C@H]4CCCC(=O)NC4=O)C5=O)cc3)cc2)nc1Nc1cccc(S(=O)(=O)NC(C)(C)C)c1 [Compound 6] | 68 | 92 | 0 | 76 | 62 | 83 | 1 | 2.5 | 42 | 76 | 91 |  |  |  |  |  |  |
| O=C1CCC[C@H](N2Cc3c(OCc4ccc(C(=O)N5CCOCC5)cc4)cccc3C2=O)C(=O)N1 [Compound 8, (S)-3-{4-[(p-Morpholinocarbonlphenyl)methoxy]-2-isoindolinoyl}-2,7-azepanedione] | 73 |  | 0 | 0 | 63 |  | 1.8 | 2.3 | 56 |  | 16 |  |  |  |  |  |  |
| NCc1cccc(COc2cccc3c2CN([C@H]2CCCC(=O)NC2=O)C3=O)c1 [Compound 9, trifluoroacetic acid] | 74 |  | 2 | 10 | 62 |  | 1.6 | 1.6 | 51 |  | 34 |  |  |  |  |  |  |
| O=C1CCC[C@H](N2Cc3c(OCc4cccc(CN5CCOCC5)c4)cccc3C2=O)C(=O)N1 [Compound 10] | 52 |  | 1 | 35 | 48 |  | 1.9 | 2.1 | 27 |  | 38 |  |  |  |  |  |  |
| Cc1cnc(Nc2ccc(OCCCNC(=O)NCc3ccc(COc4cccc5c4CN([C@H]4CCCC(=O)NC4=O)C5=O)cc3)cc2)nc1Nc1cccc(S(=O)(=O)NC(C)(C)C)c1 [Compound 13] |  | 51 | 0 | 50 |  | 84 |  | 0.3 |  | 59 |  | 0.1 | 29 |  |  |  |  |
| Cc1cnc(Nc2ccc(OCCCNC(=O)NCc3ccc(COc4cc(F)cc5c4CN([C@H]4CCC(=O)NC4=O)C5=O)cc3)cc2)nc1Nc1cccc(S(=O)(=O)NC(C)(C)C)c1 [Compound 18] |  | 80 | 99 | 99 |  | 83 |  | 3.2 |  | 49 | 99 | 3.3 |  | 83 | 89 | 45 |  |
| Cc1cnc(Nc2ccc(OCCCNC(=O)NCc3ccc(COc4cccc5c4CN([C@H]4CCC(=O)NC4=O)C5=O)cc3)cc2)nc1Nc1cccc(S(=O)(=O)NC(C)(C)C)c1 [Compound 20] | 30 | 43 | 77 | 88 | 43 | 57 | 0.9 | 1.4 | 1 | 5 |  |  | 99 |  |  |  | 93 |
| NCc1ccc2c(c1OCc1ccc(CN3CCOCC3)cc1)CN([C@H]1CCCC(=O)NC1=O)C2=O [Compound 22, ditrifluoroacetic acid] | 69 | 74 | 2 | 4 | 78 | 80 | 2 | 2.4 | 23 | 27 |  |  | 56 |  |  |  | 31 |
